Measured values published in US20120328713A1, “Articles of Manufacture with Improved Anti-microbial Properties” (priority 2009, published 2012).

Columns and labels:
P. aeruginosa ATCC 27853 = experiment: Silver (III) periodate efficacy testing in the presence of Cl-, SO4 2-, and PO4 3-; type: cell-based; details: 30 minutes, 1.5-200 ppm
Procedure: Silver (III) periodate was tested for efficacy in water, 1% NaCl, 1% K2SO4, and 1% K2HPO4 solutions, and compared with silver nitrate. The test solutions were tested against P. aeruginosa ATCC 27853. The challenge time was 30 minutes. Silver (III) periodate and silver nitrate were tested at range of 1.5-200 ppm.

[1] = tested on: Escherichia coli (ATCC 25922); experiment: MBEC P&G assay in dilutions of feces; type: cell-based
Procedure: The challenge time was 4 hours. The tested concentration range for both silver compounds was 500 to 7.8 ppm.

[2] = tested on: Escherichia coli (ATCC 25922); experiment: MBEC P&G assay in dilutions of mucin; type: cell-based
Procedure: (§1) The effects of silver (III) periodate and silver nitrate in different dilutions of mucin (2.0%, 1.0%, 0.5%, 0.25%, 0.12%, 0.06%) were tested using the MBEC™ P&G assay against Escherichia coli (ATCC 25922)The challenge time was 4 hours. The tested concentration range for both silver compounds was 500 to 7.8 ppm.

[3] = tested on: Escherichia coli ATCC 25922; experiment: MBEC P&G assay in dilutions of human serum; type: cell-based
Procedure: (§2) The effects of silver (III) periodate and silver nitrate were tested in different dilutions of human serum (0.001%, 0.01%, 0.1%, 1%, 10%, 50%) using the MBECTM P&G assay against relevant clinical human pathogens Escherichia coli, Staphylococcus aureus (MRSA), and Candida albicans. The challenge time was 4 hours. The tested concentration range for the silver compounds was 500 to 7.8 ppm.

[4] = tested on: Staphylococcus aureus (MRSA) 456; experiment: MBEC P&G assay in dilutions of human serum; type: cell-based
Procedure: as §2

[5] = tested on: Candida albicans ATCC 28367; experiment: MBEC P&G assay in dilutions of human serum; type: cell-based; details: all concentrations of human serum
Procedure: as §2

[6] = tested on: Escherichia coli (ATCC 25922); experiment: MBEC P&G assay in dilutions of urine; type: cell-based
Procedure: as §1, with “urine (0.001%, 0.01%, 0.1%, 1%, 10%, 50%)” for “mucin (2.0%, 1.0%, 0.5%, 0.25%, 0.12%, 0.06%) were tested”, “assay were tested” for “assay”

[7] = tested on: bacterial speck (Pseudomonas syringae pv. tomato); experiment: Field trial, foliar spray against bacterial speck in tomatoes (Example 18); type: in vivo, tomatoes (Lycopersicon esculentum); details: after three treatment sprays
[8] = tested on: bacterial canker (Clavibacter michiganensis pv. michiganensis); experiment: Field trial, foliar spray against bacterial canker in tomatoes (Example 19); type: in vivo, tomatoes (Lycopersicon esculentum); details: after three treatment sprays; full dose
Procedure: (§3) Silver (III) periodate was tested as a bactericidal foliar spray treatment against bacterial canker (Clavibacter michiganensis pv. michiganensis) in tomatoes (Lycopersicon esculentum).
(§4) See Example 18 for Preparation of Tomato Seed; Preparation of Field; Seeding; Plot Maintenance; Preparation of Spray Treatment Solutions and Inoculum; Spray Treatment Procedure; and Data Collection.

[9] = tested on: bacterial canker (Clavibacter michiganensis pv. michiganensis); experiment: Field trial, foliar spray against bacterial canker in tomatoes (Example 20); type: in vivo, tomatoes (Lycopersicon esculentum)
Procedure: as §3, §4

[10] = tested on: Pseudomonas aeruginosa biofilms; experiment: Log reduction and MBEC assays on biofilms; type: cell-based; details: 4 hours
[11] = Stability of partially dehydrated sodium diperiodatoargentate in the presence of saline; type: physicochemical; details: compared with the fully hydrated compound
Procedure: Fully hydrated sodium diperiodatoargentate was made, ground using a mortar and pestle, and spread in an even thin layer in a pre-heated (120° C.) non-reactive container (e.g. glass or ceramics). The thin layer was necessary to prevent areas of poor heat transfer. The container was then placed in an oven at 120° C. for 15 minutes. After 15 minutes, the sample was removed from the oven and transferred to a sealed container (glass vial), which was then stored in a dessicator in the dark at room temperature to prevent the material from adsorbing water.
Relative to the fully hydrated sodium diperiodatoargentate, the partially dehydrated sodium diperiodatoargentate is darker in color and is a much finer powder (which will be advantageous for incorporation into polymers).

Molecule: O=[N+]([O-])[O-].[Ag+] [silver nitrate, reference compound]
- killing (P. aeruginosa ATCC 27853; in the presence of 1% NaCl or 1% K2HPO4): unable to kill at any of the tested concentrations
- killing (P. aeruginosa ATCC 27853; no salt and 1% K2SO4): effective at killing all the cells for the entire challenge range
- MBC, effective level ([1]; 1.56% feces): < 7.8 ppm
- MBC, effective level ([1]; 3.13% feces): < 7.8 ppm
- MBC, effective level ([1]; 6.25% feces): < 7.8 ppm
- MBC, effective level ([1]; 12.5% feces): 15.6 ppm
- MBC, effective level ([1]; 25% feces): 31.25 ppm
- MBC, effective level ([1]; 50% feces): 62.5 ppm
- MBEC effectiveness compared with silver(III) periodate ([1]; in the presence of feces): more effective than silver(III) periodate in higher concentrations of feces but less effective in lower concentrations
- log reduction compared with the other compound ([2]; mucin 0.5% and lower, higher compound concentrations): better log reductions
- log reduction, trend with compound concentration ([2]; regardless of the concentration of mucin): the lower the concentration of silver nitrate, the lower the log reduction was
- log reduction, trend with compound concentration ([3]; human serum 1% or 0.001%): no effect on the log reduction
- log reduction, trend with compound concentration ([3]; human serum 50%, 10%, and 0.1%): log reductions decreased significantly with a decrease in the concentration of silver nitrate
- log reduction compared with the other compound ([4]; 0.001% human serum, 500 ppm): higher log reduction only at 500 ppm with a two magnitude difference
- killing activity ([4]; 0.1% and 0.01% human serum): no significant killing activity
- log reduction, trend with compound concentration [5]: Log reductions decreased with a decrease in concentration of silver nitrate
- MBC cut-off point ([6]; 50.0% urine): 31.25 ppm
- MBC cut-off point ([6]; 100% urine): 62.5 ppm
- log reduction ([6]; 500 and 250 ppm, all tested concentrations of urine): approximately equal log reductions
- log reduction compared with the other compound ([6]; compound concentrations of 125 ppm and below): larger log reduction in the higher concentrations of urine

Molecule: oxysilver nitrate [reference compound]
- disease severity on foliage [7]: best at reducing disease severity on foliage
- disease severity on foliage [8]: best at reducing disease severity on foliage
- disease severity on foliage ([9]; after three treatment sprays, low and high dose): best at reducing disease severity on foliage
- disease severity on foliage ([9]; after two treatment sprays, high dose): best at reducing disease severity on foliage

Molecule: sodium diperiodatoargentate
- kill of biofilms ([10]; 200 ppm, p<0.05): significantly higher kill than the fully hydrated sodium diperiodatoargentate
- kill of biofilms ([10]; all other concentrations (1.56 ppm to 200 ppm range)): no significant differences
- stability in the presence of saline [11]: same level of stability as the fully hydrated compound
